Among the data in patent US20180371044A1, “PEPTIDOMIMETIC MACROCYCLES” (Aileron Therapeutics, Inc., priority 2015, published 2018) are EC50 values, retold here.

Where a SMILES comes first, the peptide text is derived from it. Bridges are numbered along the chain shown (N, C = ends). [ ]: non-standard residue; d: D form. The star is where a group is joined. NiPrTyr = CC(C)N[C@@H](Cc1ccc(O)cc1)C(=O)O; NMeY = CN[C@@H](Cc1ccc(O)cc1)C(=O)O; R8 = C=CCCCCCC[C@@](C)(N)C(=O)O; S5 = C=CCCC[C@](C)(N)C(=O)O; Nle = CCCC[C@H](N)C(=O)O; Hexanoyl = CCCCCC(=O)* Bounds are passed on as bounds.

A word on the EC50: it is the concentration at which the effect is half-maximal. Lower therefore signals an effect from little substance.

The target of the test is T1, human GHRH receptor (hGHRHR) (Homo sapiens, UniProt Q02643).
T1 construct: expressed in transfected cells; host or cells: Human 293 cells
T1 sequence (Q02643 23-423): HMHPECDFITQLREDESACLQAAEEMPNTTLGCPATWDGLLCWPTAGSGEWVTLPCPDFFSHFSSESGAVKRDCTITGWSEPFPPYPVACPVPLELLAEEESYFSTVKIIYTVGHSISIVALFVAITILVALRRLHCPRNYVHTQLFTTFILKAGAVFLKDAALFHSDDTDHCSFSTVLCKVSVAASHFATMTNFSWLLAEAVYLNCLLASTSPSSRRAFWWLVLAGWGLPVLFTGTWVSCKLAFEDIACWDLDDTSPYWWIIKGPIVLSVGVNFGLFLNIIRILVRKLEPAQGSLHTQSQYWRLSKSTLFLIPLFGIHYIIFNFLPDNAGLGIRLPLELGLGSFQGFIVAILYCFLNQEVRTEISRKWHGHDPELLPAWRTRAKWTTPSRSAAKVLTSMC
Nature of the test: GHRHR agonism measured by cAMP (HTRF) in human 293 cells expressing hGHRHR.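 Further: receptor expressed transiently or stably, cells stimulated in serum-free medium, EC50 from a non-linear dose-response fit, maximal response defined by reference GHRH stimulation.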 Format: cell-based. The settings on record: 30 min at RT. On the technique in general: Time-resolved FRET reads energy transfer from a long-lived donor to a nearby acceptor.
In the case of `CCCC[C@H](NC(=O)[C@@H](NC(=O)[C@H](CC(=O)O)NC(=O)[C@H](CCC(N)=O)NC(=O)[C@]1(C)CCCC=CCCCCCC[C@@](C)(NC(=O)[C@H](C)NC(=O)[C@H](CC(C)C)NC(=O)[C@@H](NC(=O)[C@H](CCCCN)NC(=O)[C@H](CCCNC(=N)N)NC(=O)[C@H](Cc2ccc(O)cc2)NC(=O)[C@H](CO)NC(=O)[C@H](C)NC(=O)[C@@H](NC(=O)[C@H](Cc2ccccc2)NC(=O)[C@@H](NC(=O)[C@H](C)NC(=O)[C@H](CC(=O)O)NC(=O)[C@H](C)NC(=O)[C@H](Cc2ccc(O)cc2)NC)[C@@H](C)CC)[C@@H](C)O)C(C)C)C(=O)N[C@@H](CC(C)C)C(=O)N[C@@H](CO)C(=O)N[C@@H](C)C(=O)N[C@@H](CCCNC(=N)N)C(=O)N[C@@H](CCCCN)C(=O)N[C@@H](C)C(=O)N1)[C@@H](C)CC)C(=O)N[C@@H](CO)C(=O)N[C@@H](CCCNC(=N)N)C(N)=O` [SP-28] (H-[NMeY]ADAIFTASYRKVLA[R8]LSARKA[S5]QDI[Nle]SR-NH2; staple 16-23), the EC50 was in the range of 1 to 10 nM.

The compound `CCCC[C@H](NC(=O)[C@@H](NC(=O)[C@H](CC(=O)O)NC(=O)[C@]1(C)CCCC=CCCCCCC[C@@](C)(NC(=O)[C@H](CCC(N)=O)NC(=O)[C@H](C)NC(=O)[C@H](CC(C)C)NC(=O)[C@@H](NC(=O)[C@H](CCCCN)NC(=O)[C@H](CCCNC(=N)N)NC(=O)[C@H](Cc2ccc(O)cc2)NC(=O)[C@H](CO)NC(=O)[C@H](C)NC(=O)[C@@H](NC(=O)[C@H](Cc2ccccc2)NC(=O)[C@@H](NC(=O)[C@H](C)NC(=O)[C@H](CC(=O)O)NC(=O)[C@H](C)NC(=O)[C@H](Cc2ccc(O)cc2)NC)[C@@H](C)CC)[C@@H](C)O)C(C)C)C(=O)N[C@@H](CO)C(=O)N[C@@H](C)C(=O)N[C@@H](CCCNC(=N)N)C(=O)N[C@@H](CCCCN)C(=O)N[C@@H](C)C(=O)N[C@@H](CC(C)C)C(=O)N1)[C@@H](C)CC)C(=O)N[C@@H](CO)C(=O)N[C@@H](CCCNC(=N)N)C(N)=O` [SP-29] (H-[NMeY]ADAIFTASYRKVLAQ[R8]SARKAL[S5]DI[Nle]SR-NH2; staple 17-24) showed an EC50 of 1 to 10 nM.

Consider `CCCC[C@H](NC(=O)[C@@H](NC(=O)[C@]1(C)CCCC=CCCCCCC[C@@](C)(NC(=O)[C@H](CC(C)C)NC(=O)[C@H](CCC(N)=O)NC(=O)[C@H](C)NC(=O)[C@H](CC(C)C)NC(=O)[C@@H](NC(=O)[C@H](CCCCN)NC(=O)[C@H](CCCNC(=N)N)NC(=O)[C@H](Cc2ccc(O)cc2)NC(=O)[C@H](CO)NC(=O)[C@H](C)NC(=O)[C@@H](NC(=O)[C@H](Cc2ccccc2)NC(=O)[C@@H](NC(=O)[C@H](C)NC(=O)[C@H](CC(=O)O)NC(=O)[C@H](C)NC(=O)[C@H](Cc2ccc(O)cc2)NC)[C@@H](C)CC)[C@@H](C)O)C(C)C)C(=O)N[C@@H](C)C(=O)N[C@@H](CCCNC(=N)N)C(=O)N[C@@H](CCCCN)C(=O)N[C@@H](C)C(=O)N[C@@H](CC(C)C)C(=O)N[C@@H](CCC(N)=O)C(=O)N1)[C@@H](C)CC)C(=O)N[C@@H](CO)C(=O)N[C@@H](CCCNC(=N)N)C(N)=O` [SP-30] (H-[NMeY]ADAIFTASYRKVLAQL[R8]ARKALQ[S5]I[Nle]SR-NH2; staple 18-25), for which the concentration giving a half-maximal response (EC50) lay within 1 to 10 nM.

`CCCC[C@H](NC(=O)[C@]1(C)CCCC=CCCCCCC[C@@](C)(NC(=O)[C@H](CO)NC(=O)[C@H](CC(C)C)NC(=O)[C@H](CCC(N)=O)NC(=O)[C@H](C)NC(=O)[C@H](CC(C)C)NC(=O)[C@@H](NC(=O)[C@H](CCCCN)NC(=O)[C@H](CCCNC(=N)N)NC(=O)[C@H](Cc2ccc(O)cc2)NC(=O)[C@H](CO)NC(=O)[C@H](C)NC(=O)[C@@H](NC(=O)[C@H](Cc2ccccc2)NC(=O)[C@@H](NC(=O)[C@H](C)NC(=O)[C@H](CC(=O)O)NC(=O)[C@H](C)NC(=O)[C@H](Cc2ccc(O)cc2)NC)[C@@H](C)CC)[C@@H](C)O)C(C)C)C(=O)N[C@@H](CCCNC(=N)N)C(=O)N[C@@H](CCCCN)C(=O)N[C@@H](C)C(=O)N[C@@H](CC(C)C)C(=O)N[C@@H](CCC(N)=O)C(=O)N[C@@H](CC(=O)O)C(=O)N1)C(=O)N[C@@H](CO)C(=O)N[C@@H](CCCNC(=N)N)C(N)=O` [SP-31] (H-[NMeY]ADAIFTASYRKVLAQLS[R8]RKALQD[S5][Nle]SR-NH2; staple 19-26) showed an EC50 of 1 to 10 nM.

`CCCC[C@H](NC(=O)[C@@H](NC(=O)[C@H](CC(=O)O)NC(=O)[C@H](CCC(N)=O)NC(=O)[C@H](CC(C)C)NC(=O)[C@H](C)NC(=O)[C@H](CCCCN)NC(=O)[C@H](CCCNC(=N)N)NC(=O)[C@H](C)NC(=O)[C@H](CO)NC(=O)[C@H](CC(C)C)NC(=O)[C@H](CCC(N)=O)NC(=O)[C@H](C)NC(=O)[C@H](CC(C)C)NC(=O)[C@@H](NC(=O)[C@H](CCCCN)NC(=O)[C@H](CCCNC(=N)N)NC(=O)[C@H](Cc1ccc(O)cc1)NC(=O)[C@H](CO)NC(=O)[C@H](C)NC(=O)[C@@H](NC(=O)[C@H](Cc1ccccc1)NC(=O)[C@@H](NC(=O)[C@H](C)NC(=O)[C@H](CC(=O)O)NC(=O)[C@H](C)NC(=O)[C@H](Cc1ccc(O)cc1)NC)[C@@H](C)CC)[C@@H](C)O)C(C)C)[C@@H](C)CC)C(=O)N[C@@H](CO)C(=O)N[C@@H](CCCNC(=N)N)C(N)=O` [SP-35] (H-[NMeY]ADAIFTASYRKVLAQLSARKALQDI[Nle]SR-NH2) showed an EC50 of no more than 1 nM.

In turn, `CCCC[C@H](NC(=O)[C@@H](NC(=O)[C@H](CC(=O)O)NC(=O)[C@H](CCC(N)=O)NC(=O)[C@H](CC(C)C)NC(=O)[C@H](C)NC(=O)[C@H](CCCCN)NC(=O)[C@H](CCCNC(=N)N)NC(=O)[C@H](C)NC(=O)[C@H](CO)NC(=O)[C@H](CC(C)C)NC(=O)[C@H](CCC(N)=O)NC(=O)[C@H](C)NC(=O)[C@H](CC(C)C)NC(=O)[C@@H](NC(=O)[C@H](CCCCN)NC(=O)[C@H](CCCNC(=N)N)NC(=O)[C@H](Cc1ccc(O)cc1)NC(=O)[C@H](CO)NC(=O)[C@H](C)NC(=O)[C@@H](NC(=O)[C@H](Cc1ccccc1)NC(=O)[C@@H](NC(=O)[C@H](C)NC(=O)[C@H](CC(=O)O)NC(=O)[C@H](C)NC(=O)[C@@H](N)Cc1ccc(O)cc1)[C@@H](C)CC)[C@@H](C)O)C(C)C)[C@@H](C)CC)C(=O)N[C@@H](CO)C(=O)N[C@@H](CCCNC(=N)N)C(N)=O` [SP-36] (H-YADAIFTASYRKVLAQLSARKALQDI[Nle]SR-NH2) had an EC50 of 1 to 10 nM.

With `CCCC[C@H](NC(=O)[C@@H](NC(=O)[C@H](CC(=O)O)NC(=O)[C@H](CCC(N)=O)NC(=O)[C@H](CC(C)C)NC(=O)[C@H](C)NC(=O)[C@H](CCCCN)NC(=O)[C@H](CCCNC(=N)N)NC(=O)[C@H](C)NC(=O)[C@H](CO)NC(=O)[C@H](CC(C)C)NC(=O)[C@H](CCC(N)=O)NC(=O)[C@H](C)NC(=O)[C@H](CC(C)C)NC(=O)[C@@H](NC(=O)[C@H](CCCCN)NC(=O)[C@H](CCCNC(=N)N)NC(=O)[C@H](Cc1ccc(O)cc1)NC(=O)[C@H](CO)NC(=O)[C@H](C)NC(=O)[C@@H](NC(=O)[C@H](Cc1ccccc1)NC(=O)[C@@H](NC(=O)[C@H](C)NC(=O)[C@H](CC(=O)O)NC(=O)[C@H](C)NC(=O)[C@H](Cc1ccc(O)cc1)NC(C)C)[C@@H](C)CC)[C@@H](C)O)C(C)C)[C@@H](C)CC)C(=O)N[C@@H](CO)C(=O)N[C@@H](CCCNC(=N)N)C(N)=O` [SP-37] (H-[NiPrTyr]ADAIFTASYRKVLAQLSARKALQDI[Nle]SR-NH2), the EC50 is 1 to 10 nM.

For the compound `CCCCCC(=O)N[C@@H](Cc1ccc(O)cc1)C(=O)N[C@@H](C)C(=O)N[C@@H](CC(=O)O)C(=O)N[C@@H](C)C(=O)N[C@H](C(=O)N[C@@H](Cc1ccccc1)C(=O)N[C@H](C(=O)N[C@@H](C)C(=O)N[C@@H](CO)C(=O)N[C@@H](Cc1ccc(O)cc1)C(=O)N[C@@H](CCCNC(=N)N)C(=O)N[C@@H](CCCCN)C(=O)N[C@H](C(=O)N[C@@H](CC(C)C)C(=O)N[C@@H](C)C(=O)N[C@@H](CCC(N)=O)C(=O)N[C@@H](CC(C)C)C(=O)N[C@@H](CO)C(=O)N[C@@H](C)C(=O)N[C@@H](CCCNC(=N)N)C(=O)N[C@@H](CCCCN)C(=O)N[C@@H](C)C(=O)N[C@@H](CC(C)C)C(=O)N[C@@H](CCC(N)=O)C(=O)N[C@@H](CC(=O)O)C(=O)N[C@H](C(=O)N[C@@H](CCCC)C(=O)N[C@@H](CO)C(=O)N[C@@H](CCCNC(=N)N)C(N)=O)[C@@H](C)CC)C(C)C)[C@@H](C)O)[C@@H](C)CC` [SP-39] (Hexanoyl-YADAIFTASYRKVLAQLSARKALQDI[Nle]SR-NH2), the EC50 lay in the range of 1 to 10 nM.

Compound `CCCC[C@H](NC(=O)[C@@H](NC(=O)[C@H](CC(=O)O)NC(=O)[C@H](CCC(N)=O)NC(=O)[C@H](CC(C)C)NC(=O)[C@H](C)NC(=O)[C@H](CCCCN)NC(=O)[C@H](CCCNC(=N)N)NC(=O)[C@H](C)NC(=O)[C@H](CO)NC(=O)[C@H](CC(C)C)NC(=O)[C@H](CCC(N)=O)NC(=O)[C@H](C)NC(=O)[C@H](CC(C)C)NC(=O)[C@@H](NC(=O)[C@H](CCCCN)NC(=O)[C@H](CCCNC(=N)N)NC(=O)[C@H](Cc1ccc(O)cc1)NC(=O)[C@H](CO)NC(=O)[C@H](C)NC(=O)[C@@H](NC(=O)[C@H](Cc1ccccc1)NC(=O)[C@@H](NC(=O)[C@H](C)NC(=O)[C@H](CC(=O)O)NC(=O)[C@H](C)NC(=O)[C@H](Cc1ccc(O)cc1)NC(C)=O)[C@@H](C)CC)[C@@H](C)O)C(C)C)[C@@H](C)CC)C(=O)N[C@@H](CO)C(=O)N[C@@H](CCCNC(=N)N)C(N)=O` [SP-40] (Ac-YADAIFTASYRKVLAQLSARKALQDI[Nle]SR-NH2) yielded an EC50 of 1 to 10 nM.
